Results reported in patent US8071616B2, “Pyridine, quinoline, and isoquinoline N-oxides as kinase inhibitors” (Bayer Healthcare LLC, priority 2002, dated 2011).

- melting point: 232 to 234 °C
Structure (SMILES): CNC(=O)c1cc(Oc2ccc(NC(=O)Nc3ccc(Cl)c(C(F)(F)F)c3)cc2)cc[n+]1[O-] [Experimental Synthesis 1, N-[4-chloro-3-(trifluoromethyl)phenyl]-N′-{4-[2-(N-methylcarbamoyl)-1-oxo-(4-pyridyloxy)]phenyl}urea]
